# From ChEMBL document CHEMBL1770137, “High concentration electrophysiology-based fragment screen: discovery of novel acid-sensing ion channel 3 (ASIC3) inhibitors” (Bioorg Med Chem Lett, 2011)
# How the values were obtained:
# [1] = molecular target: T1, Acid-sensing ion channel 3 (Homo sapiens) (UniProt Q9UHC3); assay: Inhibition of human ASIC3 expressed in HEK293 cells assessed as inhibition of acid-evoked current at 1000 uM by manual patch-clamp electrophysiology assay; format: cell-based
# T1 sequence (whole entry): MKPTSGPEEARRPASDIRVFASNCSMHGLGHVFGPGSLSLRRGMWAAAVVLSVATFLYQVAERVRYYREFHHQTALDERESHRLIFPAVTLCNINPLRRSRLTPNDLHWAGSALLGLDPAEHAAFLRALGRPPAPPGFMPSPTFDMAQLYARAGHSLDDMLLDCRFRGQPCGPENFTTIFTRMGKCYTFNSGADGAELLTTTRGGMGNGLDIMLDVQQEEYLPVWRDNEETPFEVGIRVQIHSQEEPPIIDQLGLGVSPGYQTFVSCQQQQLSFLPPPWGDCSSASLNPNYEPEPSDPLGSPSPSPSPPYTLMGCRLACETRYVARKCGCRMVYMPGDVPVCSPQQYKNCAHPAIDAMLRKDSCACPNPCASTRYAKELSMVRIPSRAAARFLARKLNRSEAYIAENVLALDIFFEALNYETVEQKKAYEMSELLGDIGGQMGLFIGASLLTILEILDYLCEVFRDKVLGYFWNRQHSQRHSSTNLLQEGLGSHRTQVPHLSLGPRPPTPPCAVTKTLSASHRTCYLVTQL
# [2] = molecular target: T2, Acid-sensing ion channel 3 (Homo sapiens, UniProt Q9UHC3); assay: Inhibition of human ASIC3 expressed in HEK293 cells assessed as inhibition of acid-evoked current by manual patch-clamp electrophysiology assay; format: cell-based
# T2 sequence (Q9UHC3 whole entry): T1 sequence (whole entry)
# [3] = Half life in rat; format: ADME, organism-based; details: in vivo
# [4] = molecular target: Voltage-gated inwardly rectifying potassium channel KCNH2 (Homo sapiens, UniProt Q12809); assay: Binding affinity to human ERG
# Voltage-gated inwardly rectifying potassium channel KCNH2, sequence (Q12809 whole entry): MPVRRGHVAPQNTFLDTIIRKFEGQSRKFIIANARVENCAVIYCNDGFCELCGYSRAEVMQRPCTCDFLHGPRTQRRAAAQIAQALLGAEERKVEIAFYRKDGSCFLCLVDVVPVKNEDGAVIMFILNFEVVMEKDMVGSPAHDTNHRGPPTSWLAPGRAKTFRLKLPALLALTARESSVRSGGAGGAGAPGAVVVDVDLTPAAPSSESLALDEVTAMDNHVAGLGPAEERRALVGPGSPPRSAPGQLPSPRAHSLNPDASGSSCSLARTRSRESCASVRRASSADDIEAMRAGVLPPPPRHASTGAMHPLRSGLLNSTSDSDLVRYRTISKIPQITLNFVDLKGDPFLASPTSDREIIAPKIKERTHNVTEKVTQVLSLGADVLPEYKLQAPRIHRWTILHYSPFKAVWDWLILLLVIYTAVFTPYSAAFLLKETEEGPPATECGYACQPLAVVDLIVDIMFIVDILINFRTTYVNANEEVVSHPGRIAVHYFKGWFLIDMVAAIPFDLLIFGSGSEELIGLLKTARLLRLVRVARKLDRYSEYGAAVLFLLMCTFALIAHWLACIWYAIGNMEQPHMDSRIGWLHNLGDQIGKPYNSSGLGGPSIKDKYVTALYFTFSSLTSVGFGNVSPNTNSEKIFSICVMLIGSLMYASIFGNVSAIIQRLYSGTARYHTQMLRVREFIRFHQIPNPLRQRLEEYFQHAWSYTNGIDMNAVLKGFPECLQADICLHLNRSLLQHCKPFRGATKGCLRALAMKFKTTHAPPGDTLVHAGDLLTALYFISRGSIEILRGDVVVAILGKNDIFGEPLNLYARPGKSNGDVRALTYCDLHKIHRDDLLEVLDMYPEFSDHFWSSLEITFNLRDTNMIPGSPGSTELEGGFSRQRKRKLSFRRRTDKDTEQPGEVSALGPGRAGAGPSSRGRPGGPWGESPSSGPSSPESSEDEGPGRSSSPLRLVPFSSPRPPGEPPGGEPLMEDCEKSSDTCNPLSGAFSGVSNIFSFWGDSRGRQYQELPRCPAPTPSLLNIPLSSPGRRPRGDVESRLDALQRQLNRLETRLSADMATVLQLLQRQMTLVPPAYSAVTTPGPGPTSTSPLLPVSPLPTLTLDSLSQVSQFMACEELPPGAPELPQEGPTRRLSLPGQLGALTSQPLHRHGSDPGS
# [5] = molecular target: Voltage-dependent L-type calcium channel subunit alpha-1C (Homo sapiens, UniProt Q13936); assay: Inhibition of Cav1.2
# Voltage-dependent L-type calcium channel subunit alpha-1C, sequence (Q13936 whole entry): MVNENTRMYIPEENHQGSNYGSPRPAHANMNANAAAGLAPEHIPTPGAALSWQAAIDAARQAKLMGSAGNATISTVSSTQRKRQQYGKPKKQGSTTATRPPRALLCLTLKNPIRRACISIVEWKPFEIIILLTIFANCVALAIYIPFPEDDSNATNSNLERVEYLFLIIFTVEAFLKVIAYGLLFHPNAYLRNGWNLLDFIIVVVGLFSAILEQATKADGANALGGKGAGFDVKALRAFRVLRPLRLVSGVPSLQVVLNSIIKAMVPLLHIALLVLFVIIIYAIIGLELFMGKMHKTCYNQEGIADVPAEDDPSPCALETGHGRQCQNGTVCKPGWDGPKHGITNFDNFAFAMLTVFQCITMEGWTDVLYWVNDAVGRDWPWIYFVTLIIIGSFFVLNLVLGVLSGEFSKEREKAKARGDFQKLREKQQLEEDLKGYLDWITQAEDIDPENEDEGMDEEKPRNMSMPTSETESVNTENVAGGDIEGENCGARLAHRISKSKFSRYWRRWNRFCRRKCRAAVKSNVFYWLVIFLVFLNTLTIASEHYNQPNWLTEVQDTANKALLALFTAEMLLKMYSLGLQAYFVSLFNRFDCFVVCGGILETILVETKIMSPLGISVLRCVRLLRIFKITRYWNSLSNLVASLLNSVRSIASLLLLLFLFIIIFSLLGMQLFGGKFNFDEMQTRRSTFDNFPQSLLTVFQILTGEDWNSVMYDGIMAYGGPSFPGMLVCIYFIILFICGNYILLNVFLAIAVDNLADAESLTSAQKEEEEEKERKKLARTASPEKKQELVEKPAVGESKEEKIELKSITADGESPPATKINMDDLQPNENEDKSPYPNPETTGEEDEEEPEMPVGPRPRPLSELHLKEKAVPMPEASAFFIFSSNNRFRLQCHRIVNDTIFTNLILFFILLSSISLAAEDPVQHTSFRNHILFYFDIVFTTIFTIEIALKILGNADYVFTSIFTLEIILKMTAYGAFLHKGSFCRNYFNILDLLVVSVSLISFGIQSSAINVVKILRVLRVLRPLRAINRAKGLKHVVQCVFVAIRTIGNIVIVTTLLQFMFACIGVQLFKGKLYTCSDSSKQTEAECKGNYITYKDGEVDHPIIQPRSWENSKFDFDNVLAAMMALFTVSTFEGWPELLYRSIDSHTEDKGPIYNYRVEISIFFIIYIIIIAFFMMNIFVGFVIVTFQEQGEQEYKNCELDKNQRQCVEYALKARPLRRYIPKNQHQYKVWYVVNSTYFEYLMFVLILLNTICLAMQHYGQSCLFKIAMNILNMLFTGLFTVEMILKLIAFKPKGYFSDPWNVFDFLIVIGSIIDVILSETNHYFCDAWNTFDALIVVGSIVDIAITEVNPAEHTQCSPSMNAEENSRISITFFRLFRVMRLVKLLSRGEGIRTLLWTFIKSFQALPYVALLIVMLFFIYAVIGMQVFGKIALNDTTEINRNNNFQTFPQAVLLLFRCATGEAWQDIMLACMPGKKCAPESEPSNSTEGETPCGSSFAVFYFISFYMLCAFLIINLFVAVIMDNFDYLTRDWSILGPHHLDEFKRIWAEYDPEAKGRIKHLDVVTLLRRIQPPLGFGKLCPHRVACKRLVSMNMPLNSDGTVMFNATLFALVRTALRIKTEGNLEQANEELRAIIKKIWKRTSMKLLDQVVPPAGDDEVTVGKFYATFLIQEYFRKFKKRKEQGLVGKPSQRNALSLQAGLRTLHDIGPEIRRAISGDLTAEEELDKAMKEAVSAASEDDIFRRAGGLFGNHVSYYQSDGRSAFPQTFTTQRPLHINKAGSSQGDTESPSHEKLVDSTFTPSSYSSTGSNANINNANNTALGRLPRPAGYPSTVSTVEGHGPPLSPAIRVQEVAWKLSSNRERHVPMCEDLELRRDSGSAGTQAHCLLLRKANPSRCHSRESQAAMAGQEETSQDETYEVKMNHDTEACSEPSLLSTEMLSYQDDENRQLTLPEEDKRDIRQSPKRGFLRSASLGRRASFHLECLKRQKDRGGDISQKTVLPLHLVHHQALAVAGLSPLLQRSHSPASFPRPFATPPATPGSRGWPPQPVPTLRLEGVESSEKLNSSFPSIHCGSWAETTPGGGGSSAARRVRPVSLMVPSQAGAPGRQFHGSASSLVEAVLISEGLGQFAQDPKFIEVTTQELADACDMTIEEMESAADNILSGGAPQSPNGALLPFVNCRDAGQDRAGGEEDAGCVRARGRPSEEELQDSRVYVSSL
# [6] = molecular target: CYP2D6 (Homo sapiens, UniProt P10635); assay: Inhibition of CYP2D6 at 10 uM; format: ADME
# CYP2D6, sequence (P10635 whole entry): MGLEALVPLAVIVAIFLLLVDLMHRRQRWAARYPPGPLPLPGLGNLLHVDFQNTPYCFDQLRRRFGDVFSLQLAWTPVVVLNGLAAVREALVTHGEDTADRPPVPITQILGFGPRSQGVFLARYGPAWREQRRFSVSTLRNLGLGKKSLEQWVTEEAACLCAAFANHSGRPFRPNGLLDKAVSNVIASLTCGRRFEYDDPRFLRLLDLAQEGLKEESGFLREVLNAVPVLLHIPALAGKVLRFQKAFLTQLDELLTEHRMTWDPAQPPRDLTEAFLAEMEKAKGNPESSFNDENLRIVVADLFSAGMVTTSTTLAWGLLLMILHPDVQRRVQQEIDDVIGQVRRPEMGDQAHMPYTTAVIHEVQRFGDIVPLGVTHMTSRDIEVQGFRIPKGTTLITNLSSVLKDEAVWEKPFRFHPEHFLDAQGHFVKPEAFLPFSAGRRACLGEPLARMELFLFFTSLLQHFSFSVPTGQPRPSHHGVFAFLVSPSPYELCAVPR
# [7] = Clearance in rat; format: ADME, organism-based; details: in vivo
# [8] = Volume of distribution in rat; format: ADME, organism-based; details: in vivo
# [9] = molecular target: CYP2C9 (Homo sapiens, UniProt P11712); assay: Inhibition of CYP2C9 at 10 uM; format: ADME
# CYP2C9, sequence (P11712 whole entry): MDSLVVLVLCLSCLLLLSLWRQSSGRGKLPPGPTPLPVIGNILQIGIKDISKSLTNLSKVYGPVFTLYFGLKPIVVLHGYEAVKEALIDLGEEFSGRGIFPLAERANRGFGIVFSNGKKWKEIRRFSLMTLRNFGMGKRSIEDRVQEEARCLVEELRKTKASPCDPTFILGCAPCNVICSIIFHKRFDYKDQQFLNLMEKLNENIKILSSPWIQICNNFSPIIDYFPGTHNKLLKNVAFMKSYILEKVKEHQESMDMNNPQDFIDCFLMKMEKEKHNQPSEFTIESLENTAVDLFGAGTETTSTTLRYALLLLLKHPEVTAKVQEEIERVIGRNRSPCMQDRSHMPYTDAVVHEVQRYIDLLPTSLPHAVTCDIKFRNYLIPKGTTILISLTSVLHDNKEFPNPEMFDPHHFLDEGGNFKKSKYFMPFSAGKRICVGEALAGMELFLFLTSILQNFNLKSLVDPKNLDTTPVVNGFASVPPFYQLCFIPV
# [10] = Plasma protein binding in human; format: ADME, cell-free; details: read-out: PPB (converted)
# [11] = Lipophilicity, log D of the compound by HPLC; format: physicochemical
# [12] = Plasma protein binding in rat; format: ADME, cell-free; details: read-out: PPB (converted)
# [13] = molecular target: CYP3A4 (Homo sapiens, UniProt P08684); assay: Inhibition of CYP3A4 at 10 uM; format: ADME
# CYP3A4, sequence (P08684 whole entry): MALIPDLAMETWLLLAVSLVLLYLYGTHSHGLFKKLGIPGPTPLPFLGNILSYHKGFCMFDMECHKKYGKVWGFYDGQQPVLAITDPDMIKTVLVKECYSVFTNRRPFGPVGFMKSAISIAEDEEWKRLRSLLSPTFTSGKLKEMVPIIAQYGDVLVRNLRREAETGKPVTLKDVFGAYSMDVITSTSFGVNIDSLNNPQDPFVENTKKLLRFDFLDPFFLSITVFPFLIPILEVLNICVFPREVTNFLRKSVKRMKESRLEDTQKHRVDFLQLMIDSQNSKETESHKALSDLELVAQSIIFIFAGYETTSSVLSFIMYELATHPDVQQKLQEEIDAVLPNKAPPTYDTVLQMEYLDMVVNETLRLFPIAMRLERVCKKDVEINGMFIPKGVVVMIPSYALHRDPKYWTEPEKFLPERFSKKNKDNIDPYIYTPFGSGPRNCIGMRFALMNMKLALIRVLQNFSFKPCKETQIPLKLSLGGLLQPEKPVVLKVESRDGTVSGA
# [14] = molecular target: T1, Acid-sensing ion channel 3 (Homo sapiens); assay: Inhibition of human ASIC3 expressed in HEK293 cells assessed as inhibition of acid-evoked current at 10 uM by manual patch-clamp electrophysiology assay; format: cell-based
# [15] = molecular target: T1, Acid-sensing ion channel 3 (Homo sapiens); assay: Inhibition of human ASIC3 expressed in HEK293 cells assessed as inhibition of acid-evoked current at 500 uM by manual patch-clamp electrophysiology assay; format: cell-based
Structure (SMILES),IC50 [2] [µM],further results
c1ccc(-c2c[nH]cn2)cc1,,inhibition [1]: 66%
COc1ccc2[nH]cc(CN3CCc4cc(Br)ccc4C3)c2c1,10.9,
NCc1cc2ccccc2s1,97,
CN1CCN(c2ccc(-c3ccc4c(c3)CCNC4)cc2)CC1,14.4,
Clc1cc(Cl)cc(-c2ccc3c(c2)CCNC3)c1,3.3,
FC(F)(F)c1cccc(-c2ccc3c(c2)CCNC3)c1,7.1,
CCCc1cc(NC)c2cc(C(=O)NCCc3ccc(Cl)cc3)ccc2n1,,inhibition [14]: 3%
NCc1nc2ccccc2s1,363,
c1cc2c(cc1-c1cnc3c(c1)CCN3)CCNC2,19.4,
CN1CCN(c2ccc(-c3ccc4c(c3)CCNC4)cc2C(F)(F)F)CC1,3.1,IC50 [5]: > 30 µM; inhibition at 10 µM [6]: < 35%; inhibition at 10 µM [9]: < 35%; fraction unbound [10]: 0.11; logD [11]: 2.13; fraction unbound [12]: 0.011; inhibition at 10 µM [13]: < 35%
COc1ccc2[nH]cc(CN3CCc4cc(-c5cccc(C(F)(F)F)c5)ccc4C3)c2c1,103,
Brc1ccc2c(c1)CCNC2,701,
CCCc1cc(N)c2cc(C(=O)NCCc3ccc(Cl)cc3)ccc2n1,9.6,
Brc1ccc2c(c1)CCN2,,inhibition [15]: 12%

# Continued, in another order:
IC50 [2] [µM],Structure (SMILES),further results
27.6,Cc1cc(N2CCc3cc(Br)ccc3C2)c2ccccc2n1,
430,Nc1ccc(-c2c[nH]cn2)cc1,
2.6,Nc1ccnc(-c2cccc(C#CCCO)c2)c1,
3.8,Cc1cccc(Nc2ccc(-c3ccc(N4CCNCC4)nc3)cc2)n1,half-life [3]: 4.8 h; Ki [4]: 0.7 µM; IC50 [5]: 20 µM; inhibition at 10 µM [6]: < 45%; clearance [7]: 11 mL/min/kg; Vd [8]: 3.5 L/kg; inhibition at 10 µM [9]: < 45%; fraction unbound [10]: 0.098; logD [11]: 1.99; fraction unbound [12]: 0.007; inhibition at 10 µM [13]: < 45%
1.2,Nc1ccnc(-c2cccc(C#Cc3ccccc3)c2)c1,
160,NCc1ccc(-c2c[nH]cn2)cc1,
17,Cc1cccc(Nc2ccc(C#CC(C)(C)O)cc2)n1,
9,Cc1cccc(Nc2nccc3ccoc23)n1,
5.8,Nc1cc(Cc2ccccn2)nc(-c2ccccc2)c1,
130,Nc1cc(-c2ccccc2)ncn1,
190,COc1cccnc1Nc1cccc(C)n1,
6.9,Nc1ccnc(-c2ccccc2)c1,
1.7,CC1CCCCN1c1cccc(-c2ccc3c(c2)CCNC3)n1 (stereo unspecified),
763,Nc1cccc(-c2ccccc2)n1,
